Like-named read-outs stand apart in the source and are kept apart here.
How the values were obtained:
[1] = test system: CTG-1520 PDX tumors; experiment: CTG-1520 PDX tumor growth in nude mice; format: in vivo
Description: FIG. 10A-10C show potency of Compound 1 in a patient-derived organoid model of taxane resistance. A) Overview of study design. B) CTG-1520 was implanted subcutaneously in nude mice and tumors were allowed to grow to a volume of 210 mm^3 followed by randomization of animals into three (3) groups (vehicle control, 75 mg/kg, 150 mg/kg Compound 1) with 12 animals per group. A Compound 1 solid dispersion was prepared prior to each dosing and administered by oral gavage two times a day (BID). Mean tumor volume of each group over time and the growth of tumor in each individual animal was graphed. For each individual animal of vehicle group tumor growth inhibition (TGI) % was calculated based on the tumor growth inhibition of individual tumor at each given day of the study compared to the average of the group for that given day of the study. P-values were calculated using two-tailed distribution and two-sample equal variance (homoscedastic) for each group treated with Compound 1 for each given day of the study in reference to vehicle control. ns p>0.05; *p≤0.05; **p≤0.01. C) Body weight of each individual animal was measured on days 0, 3, 6, 10, 13, and 17 and graphed using Graphpad Prism.
In a next step, the ability of Compound 1 to inhibit the growth of CTG-1520 PDX in nude mice was assessed. CTG-1520 was implanted subcutaneously in nude mice and tumors were allowed to grow to a volume of 210 mm^3 followed by randomization of animals into three (3) groups (vehicle control; 75 mg/kg, and 150 mg/kg Compound 1) with 12 animals per group (see FIG. 10A). A Compound 1 solid dispersion was administered by oral gavage two times a day (BID). All animals, except one (1) from the vehicle control group, survived through the study (17 days). One (1) animal from the vehicle control group reached the endpoint of 2000 mm^3 prior to day 17 and was eliminated from all calculations.

[2] = test system: COLO205 cells; experiment: In vitro potency, ATPlite 1Step (NTRC Oncolines); format: cell-based; details: Homo sapiens, COLO 205
Description: FIG. 11A-11E show the efficacy of Compound 1 in a colorectal cancer xenograft model (COLO205). A) In vitro potency of Compound 1 in COLO205 cells as evaluated by ATPlite 1Step™ Perkin Elmer (performed by NTRC Oncolines). B) COLO205 cells were implanted subcutaneously in nude mice and tumors were allowed to grow to a volume of 210 mm3 followed by randomization of animals into three (3) groups (vehicle control, 75 mg/kg, 150 mg/kg Compound 1) with 12 animals per group. A Compound 1 solid dispersion was prepared prior to each dosing and administered by oral gavage two times a day (BID). Mean tumor volume of each group over time and the growth of tumor in each individual animal was graphed. For each individual animal of […] group TGI (%) was calculated based on the tumor growth inhibition of individual tumor at each given day of the study compared to the average of the group for that given day of the study. P-values were calculated using two-tailed distribution and two-sample equal variance (homoscedastic) for each group treated with Compound 1 for each given day of the study in reference to vehicle control. […] The level of two biomarkers, pHH3 and CCNB1 in each tissue was measured and graphed as the Min-to-Max plot and scatter plot of the level of each biomarker. […] E) Body weight of each individual animal was measured on each day of the study and graphed using Graphpad Prism. […]

[3] = test system: A549 cells; experiment: In vitro potency, ATPlite 1Step (NTRC Oncolines); format: cell-based; details: Homo sapiens; for Emax: A549, A549, in vitro, biphasic, read-out: Maximum effect (%)
Description: FIG. 13A-13B show efficacy of Compound 1 in a lung adenocarcinoma xenograft model (A549). A) In vitro potency of Compound 1 in A549 cells as evaluated by ATPlite 1Step™ Perkin Elmer (performed by NTRC Oncolines). B) A549 cells (5×10^6) were implanted subcutaneously in athymic female nude mice and tumors were allowed to grow to a volume of ˜112 mm^3 followed by randomization of animals into three (3) groups (vehicle control, 75 mg/kg, 150 mg/kg Compound 1) with 12 animals per group. A Compound 1 solid dispersion was prepared prior to each dosing and administered by oral gavage two times a day (BID). Mean tumor volume of each group over time and the growth of tumor in each individual animal was graphed. For each individual animal of […] group TGI (%) was calculated based on the tumor growth inhibition of individual tumor at each given day of the study compared to the average of the group for that given day of the study. P-values were calculated using two-tailed distribution and two-sample equal variance (homoscedastic) for each group treated with Compound 1 for each given day of the study in reference to vehicle control. NS p>0.05; *p≤0.05; **p≤0.01; ***p p≤0.001; **** p≤0.0001.
A549 is a human lung adenocarcinoma cell line isolated from the lung tissue of their origin. […] A549 cells were implanted subcutaneously in nude mice and tumors were allowed to grow to an average volume of 112 mm^3 followed by randomization into three (3) groups consisting of vehicle control, 75 mg/kg and 150 mg/kg Compound 1 (12 animals per group). A Compound 1 solid dispersion was administered by oral gavage two times a day (BID). All animals remained in the study until Day 28 except one animal from Group 3 (Animal #29), which exited the study on Day 11 due to more than 20% body weight loss. This animal was excluded from all analysis. Data from Day 14-18 were excluded from the analysis due to inconsistencies in data collection methods.

## COc1ccccc1-c1nc(CNC(=O)c2ccccc2OC(F)F)n[nH]1 [Compound 1, 2-(difluoromethoxy)-N-[[5-(2-methoxyphenyl)-1H-1,2,4-triazol-3-yl]methyl]benzamide]
[1]; 75 mg/kg BID oral gavage, 17 days
  Tumor volume relative to vehicle control: reduced tumor volume relative to the vehicle control, but to a lesser extent than the 150 mg/kg dose
[1]; 150 mg/kg BID oral gavage, 17 days
  Tumor growth inhibition: significant tumor growth inhibition
[1]; 75 and 150 mg/kg BID, FIG. 10C
  Body weight: No body weight loss
[2]; COLO205
  IC50: 67 nM
[2]; COLO205, in vitro, read-out: Maximum effect (%)
  Emax: 95%
[3]; at highest concentration tested
  Emax: 100%
[3]; first phase
  Emax: 52%
[3]; A549, biphasic response, first phase
  IC50: 53 nM

Reference: patent US20240342138A1, “MICROTUBULE TARGETING AGENTS” (BPGbio, Inc., priority 2023, published 2024)
